In patent US6710086B1, “Protected forms of pharmacologically active agents and uses therefor” (Medinox, Inc., priority 2000, dated 2004):

System: adjuvant-induced arthritis
Conditions: high doses: naproxen 10 mg/kg, conjugate 18 mg/kg, oral daily on days 5-8 and 11-14; day 15

SMILES: COc1ccc2cc([C@H](C)C(=O)O)ccc2c1 [Naproxen, (S)-(+)-methoxy-α-methyl-2-naphthaleneacetic acid]
- Reduction of swelling compared to control: approximately 70%
